Reference: PubChem BioAssay AID256 (DTP/NCI, 2004)
Where “and” joins values, the source holds several entries; their conditions need not be identical. Equal entries are not always repeated. Toxic doses and inconclusive results are not listed. How the source made its calls: active means survival T/C of 150% or more; inactive means T/C below 125% in these data.

System: CD2F1 mice, L1210 leukemia ip, survival T/C
Test: NCI In Vivo Anticancer Drug Screen. Data for tumor model L1210 Leukemia (intraperitoneal) in CD2F1 (CDF1) mice
Conditions: higher = longer survival
Method in brief: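 Implant tumor; dose compound or vehicle; measure endpoint in both groups; report treated divided by control.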

[1] = endpoint: mean survival time, dose: 100.0 mg/kg/injection, schedule: Q04DX003 (ip), vehicle: Klucel (hydroxypropylcellulose) (HPC)
[2] = endpoint: mean survival time, dose: 200.0 mg/kg/injection, schedule: Q04DX003 (ip), vehicle: Klucel (hydroxypropylcellulose) (HPC)
[3] = endpoint: mean survival time, dose: 100.0 mg/kg/injection, schedule: Q04DX003 (ip), vehicle: saline
[4] = endpoint: mean survival time, dose: 200.0 mg/kg/injection, schedule: Q04DX003 (ip), vehicle: saline
[5] = endpoint: mean survival time, dose: 100.0 mg/kg/injection, schedule: Q04DX003 (ip), vehicle: saline with Tween-80
[6] = endpoint: mean survival time, dose: 200.0 mg/kg/injection, schedule: Q04DX003 (ip), vehicle: saline with Tween-80
[7] = endpoint: mean survival time, dose: 400.0 mg/kg/injection, schedule: Q04DX003 (ip), vehicle: saline with Tween-80
[8] = endpoint: mean survival time, dose: 100.0 mg/kg/injection, schedule: Q01DX009 (ip), vehicle: saline with Tween-80
[9] = endpoint: mean survival time, dose: 200.0 mg/kg/injection, schedule: Q01DX009 (ip), vehicle: saline with Tween-80
[10] = endpoint: mean survival time, dose: 400.0 mg/kg/injection, schedule: Q01DX009 (ip), vehicle: saline with Tween-80
[11] = endpoint: mean survival time, dose: 100.0 mg/kg/injection, schedule: Q01DX009 (ip), vehicle: saline
[12] = endpoint: mean survival time, dose: 200.0 mg/kg/injection, schedule: Q01DX009 (ip), vehicle: saline
[13] = endpoint: mean survival time, dose: 100.0 mg/kg/injection, schedule: Q01DX001 (ip), vehicle: saline with Tween-80
[14] = endpoint: mean survival time, dose: 200.0 mg/kg/injection, schedule: Q01DX001 (ip), vehicle: saline with Tween-80
[15] = endpoint: mean survival time, dose: 400.0 mg/kg/injection, schedule: Q01DX001 (ip), vehicle: saline with Tween-80

Measured: T/C

COc1ccc(NC(=O)Oc2cc(C)c(Cl)cc2C(C)C)c(Cl)c1
inactive: endpoint: mean survival time, dose: 50.0 mg/kg/injection, schedule: Q01DX009 (ip), vehicle: Klucel (hydroxypropylcellulose) (HPC) 100 % of control | endpoint: mean survival time, dose: 100.0 mg/kg/injection, schedule: Q01DX009 (ip), vehicle: Klucel (hydroxypropylcellulose) (HPC) 96 % of control | [1] 98 % of control | endpoint: mean survival time, dose: 200.0 mg/kg/injection, schedule: Q01DX009 (ip), vehicle: Klucel (hydroxypropylcellulose) (HPC) 96 % of control | [2] 98 % of control | endpoint: mean survival time, dose: 400.0 mg/kg/injection, schedule: Q04DX003 (ip), vehicle: Klucel (hydroxypropylcellulose) (HPC) 100 % of control

CC(=O)Nc1cccc([N+](=O)[O-])c1
inactive: [1] 94 % of control | [2] 97 % of control

O=C(O)CSc1ccccc1
inactive: endpoint: mean survival time, dose: 25.0 mg/kg/injection, schedule: Q04DX003 (ip), vehicle: other 98 % of control | endpoint: mean survival time, dose: 50.0 mg/kg/injection, schedule: Q04DX003 (ip), vehicle: other 98 % of control | [3] 100 % of control | [4] 98 % of control

CSc1n[nH]c(N)n1
inactive: [5] 94 % of control | [6] 94 % of control | [7] 90 % of control

CCOC(=O)CCCCCSc1n[nH]c(=O)[nH]c1=O
inactive: endpoint: mean survival time, dose: 12.5 mg/kg/injection, schedule: Q01DX005 (ip), vehicle: distilled water + Tween-80 102 % of control | endpoint: mean survival time, dose: 25.0 mg/kg/injection, schedule: Q01DX005 (ip), vehicle: distilled water + Tween-80 103 % of control | endpoint: mean survival time, dose: 50.0 mg/kg/injection, schedule: Q01DX005 (ip), vehicle: distilled water + Tween-80 92 % of control | endpoint: mean survival time, dose: 100.0 mg/kg/injection, schedule: Q01DX005 (ip), vehicle: distilled water + Tween-80 102 % of control | endpoint: mean survival time, dose: 200.0 mg/kg/injection, schedule: Q01DX005 (ip), vehicle: distilled water + Tween-80 102 % of control

CSc1nc(N)c2c(n1)nc(N(C)C)n2O
inactive: endpoint: mean survival time, dose: 12.5 mg/kg/injection, schedule: Q01DX005 (ip), vehicle: water 106 % of control | endpoint: mean survival time, dose: 25.0 mg/kg/injection, schedule: Q01DX005 (ip), vehicle: water 102 % of control | endpoint: mean survival time, dose: 50.0 mg/kg/injection, schedule: Q01DX005 (ip), vehicle: water 93 % of control | endpoint: mean survival time, dose: 100.0 mg/kg/injection, schedule: Q01DX005 (ip), vehicle: water 95 % of control | endpoint: mean survival time, dose: 200.0 mg/kg/injection, schedule: Q01DX005 (ip), vehicle: water 97 % of control

CN(C)c1ccc(/C=C/c2ccncc2)cc1
inactive: [8] 95 % of control | [9] 96 % of control | [10] 89 % of control

NC(CCc1cc(O)ccc1O)C(=O)O (stereo not drawn)
inactive: [11] 98 % of control | [12] 98 % of control | endpoint: mean survival time, dose: 400.0 mg/kg/injection, schedule: Q01DX009 (ip), vehicle: saline 102 % of control

CNC(=O)O/N=C(\CN=[N+]=[N-])C(C)(C)C
inactive: endpoint: median survival time, dose: 0.25 mg/kg/injection, schedule: Q01DX009 (ip), vehicle: saline 102 % of control | endpoint: median survival time, dose: 0.5 mg/kg/injection, schedule: Q01DX009 (ip), vehicle: saline 96 % of control | endpoint: median survival time, dose: 1.0 mg/kg/injection, schedule: Q01DX009 (ip), vehicle: saline 103 % of control

NC(CCC(=O)NC(=O)OCc1ccccc1)C(=O)O (stereo not drawn)
inactive: [5] 93 % of control | [6] 101 % of control | [7] 90 % of control

OCC(O)C(O)C(O)C(O)CO (stereo not drawn) (tested in a mixture with another compound)
inactive: endpoint: mean survival time, dose: 37.5 mg/kg/injection, schedule: Q01DX001 (ip), vehicle: saline 94 % of control | endpoint: mean survival time, dose: 75.0 mg/kg/injection, schedule: Q01DX001 (ip), vehicle: saline 96 % of control | [13] 88 % of control and 104 % of control | [5] 93 % of control and 90 % of control | endpoint: mean survival time, dose: 150.0 mg/kg/injection, schedule: Q01DX001 (ip), vehicle: saline 95 % of control | [14] 88 % of control and 98 % of control | [6] 95 % of control and 90 % of control | [15] 92 % of control and 93 % of control | [7] 97 % of control and 92 % of control

COC1OC(COC(=O)c2ccccc2)C2OC(=O)OC12 (stereo not drawn)
inactive: [5] 93 % of control | [6] 90 % of control | [7] 102 % of control

O=C(CC(Cl)c1ccccc1)c1ccccc1 (stereo not drawn)
inactive: [8] 91 % of control | [5] 94 % of control | [9] 96 % of control | [6] 98 % of control | [10] 91 % of control | [7] 90 % of control

O=C(CCl)NCc1cn(C2CC(O)C(CO)O2)c(=O)[nH]c1=O (stereo not drawn)
inactive: endpoint: mean survival time, dose: 5.6 mg/kg/injection, schedule: Q01DX005 (ip), vehicle: water 111 % of control | endpoint: mean survival time, dose: 11.25 mg/kg/injection, schedule: Q01DX005 (ip), vehicle: water 100 % of control | endpoint: mean survival time, dose: 22.5 mg/kg/injection, schedule: Q01DX005 (ip), vehicle: water 103 % of control | endpoint: mean survival time, dose: 45.0 mg/kg/injection, schedule: Q01DX005 (ip), vehicle: water 95 % of control | endpoint: mean survival time, dose: 90.0 mg/kg/injection, schedule: Q01DX005 (ip), vehicle: water 103 % of control

Oc1cc(O)c2c(c1)OC(c1ccc(O)c(O)c1)C(O)C2c1c(O)cc(O)c2c1OC(c1ccc(O)c(O)c1)C(O)C2 (stereo not drawn)
inactive: [3] 107 % of control | [4] 95 % of control | endpoint: mean survival time, dose: 400.0 mg/kg/injection, schedule: Q04DX003 (ip), vehicle: saline 104 % of control

CCCCCCCCCCCCOc1ccc(Cl)cc1Sc1cc(Cl)ccc1OCCCCCCCCCCCC
inactive: [13] 92 % of control | [14] 93 % of control | [15] 86 % of control

Clc1ccc(OCC2CO2)cc1 (stereo not drawn)
inactive: endpoint: mean survival time, dose: 25.0 mg/kg/injection, schedule: Q04DX003 (ip), vehicle: saline with Tween-80 101 % of control | endpoint: mean survival time, dose: 50.0 mg/kg/injection, schedule: Q04DX003 (ip), vehicle: saline with Tween-80 101 % of control | [5] 98 % of control

CNCC(O)c1ccc(O)cc1 (stereo not drawn)
inactive: [11] 94 % of control | [12] 91 % of control

Nc1ccc(-c2nc(-c3ccccc3)c(-c3ccccc3)[nH]2)cc1
inactive: endpoint: mean survival time, dose: 12.5 mg/kg/injection, schedule: Q01DX001 (ip), vehicle: saline with Tween-80 94 % of control | endpoint: mean survival time, dose: 25.0 mg/kg/injection, schedule: Q01DX001 (ip), vehicle: saline with Tween-80 102 % of control | endpoint: mean survival time, dose: 50.0 mg/kg/injection, schedule: Q01DX001 (ip), vehicle: saline with Tween-80 102 % of control | [15] 87 % of control

CN(C)N=Nc1c(F)c(F)c(F)c(F)c1F
inactive: endpoint: mean survival time, dose: 12.5 mg/kg/injection, schedule: Q01DX009 (ip), vehicle: other 98 % of control | endpoint: mean survival time, dose: 25.0 mg/kg/injection, schedule: Q01DX009 (ip), vehicle: other 102 % of control | endpoint: mean survival time, dose: 25.0 mg/kg/injection, schedule: Q01DX009 (ip), vehicle: saline with Tween-80 106 % of control | endpoint: mean survival time, dose: 50.0 mg/kg/injection, schedule: Q01DX009 (ip), vehicle: other 104 % of control | endpoint: mean survival time, dose: 50.0 mg/kg/injection, schedule: Q01DX009 (ip), vehicle: saline with Tween-80 104 % of control | endpoint: mean survival time, dose: 100.0 mg/kg/injection, schedule: Q01DX009 (ip), vehicle: other 104 % of control | [8] 107 % of control | endpoint: mean survival time, dose: 200.0 mg/kg/injection, schedule: Q01DX009 (ip), vehicle: other 115 % of control
